Laboratory results taken from patent US10624342B2, “Synergistic weed control from applications of haloxyfop and ALS inhibitor herbicides” (priority 2014, dated 2020).
“And” between values parts separate entries of the source, which are not always exact repeats. Equal values may be shown once.

Tests used:
Format in all cases: in vivo
[1] = system: barnyardgrass, Echinochloa crus-galli; experiment: Field trial in rice, foliar post-emergence visual weed control: barnyardgrass; details: ECHCG
Protocol: (§1) Field trials were conducted in Taiwan, China and Colombia with applications made in the area of naturally occurring weed populations. All treatments were applied using a randomized complete block trial design, with 3 to 4 replications per treatment. Plot size varied and was 1-6 meters×2-12 meters (width×length). Rice was seeded into the plots, and the rice crop was maintained as a normal commercial crop with appropriate fertilizer and maintenance treatments as needed. Rice size at application varied from the 2 to 4 leaf stage, and weeds were at the 2 to 5 leaf stage. All treatments were foliar applied as post-emergence treatments using backpack sprayers with compressed air or carbon dioxide (CO2) propellant. Spray pressure varied from 25 to 35 pounds per square inch (psi). Spray nozzles used were flat fan, with 1 to 4 nozzle booms used to apply from 200 to 450 L/ha of water as spray diluent. All treatments were mixed in water at appropriately formulated product rates to achieve the desired rates as shown based on a unit area of application (hectare). Commercially available products were used to make all applications, consisting of FENCER® 250D and BENGALA® 250D (25 grams active ingredient per liter (g ai/L) penoxsulam in an oil dispersion formulation); GALLANT™ SUPER and VERDICT™ SUPER EC (108 g ai/L haloxyfop-R-methyl in an emulsifiable concentrate formulation); GULLIVER® (500 grams active ingredient per kilograms (g ai/kg) WP (wettable powder)) and NOMINEE® SL (100 g ai/L bispyribac-sodium wettable powder).
(§2) Treatments consisted of haloxyfop-R-methyl and an ALS mode of action herbicide (penoxsulam, bispyribac-sodium, bensulfuron-methyl, or azimsulfuron), applied alone or in combination.
(§3) The treated plots and control plots were rated blind at various intervals after application. Ratings were based on a scale of 0-100%, as discussed above, wherein 0% indicates complete growth of the undesired vegetation and 100% indicates complete prevention of the undesired vegetation.
(§4) Colby's equation was used to determine the herbicidal effects expected from the mixtures, as described above. The results were measured at the evaluation intervals provided in Tables 1-5 after the first application of the compositions. […] The combinations tested, application rates and ratios employed, plant species tested, and results are included in Tables 1-5 below.
(§5) Colby's equation was used to determine the herbicidal effects expected from the mixtures (S. R. Colby, Calculating Synergistic and Antagonistic Responses of Herbicide Combinations, WEEDS 15, p. 22 (1967)). A t-test (alpha=0.05) between Colby predictions and observed combinations was used to test for significant differences indicating synergy or antagonism using replicate data. The results presented in Tables 1-5 were significant according to the described criteria.

[2] = system: Chinese sprangletop, Leptochloa chinensis; experiment: Field trial in rice, foliar post-emergence visual weed control: Chinese sprangletop; details: LEFCH
Protocol: as §1, §2, §3, §4, §5

[3] = system: small flower flatsedge, Cyperus difformis; experiment: Field trial in rice, foliar post-emergence visual weed control: small flower flatsedge; details: CYPDI; for % Visual Weed Control: 7DAA; for Mean % weed control: 14DAA
Protocol: as §1, §2, §3, §4, §5

[4] = system: crabgrass, Digitaria horizontalis; experiment: Field trial in rice, foliar post-emergence visual weed control: crabgrass; details: DIGHO
Protocol: as §1, §2, §3, §4, §5

[5] = system: rice flatsedge, Cyperus iria; experiment: Field trial in rice, foliar post-emergence visual weed control: rice flatsedge; details: CYPIR
Protocol: as §1, §2, §3, §4, §5

[6] = system: itch grass, Rottboellia exaltata; experiment: Field trial in rice, foliar post-emergence visual weed control: itch grass; details: ROOEX
Protocol: as §1, §2, §3, §4, §5

[7] = system: bullgrass, Eleusine indica; experiment: Field trial in rice, foliar post-emergence visual weed control: bullgrass; details: ELEIN, 7DAA
Protocol: as §1, §2, §3, §4
as §5, with “The results presented in Tables 1-5 were significant according to the described criteria.” left out

[8] = system: monochoria, Monochoria vaginalis; experiment: Field trial in rice, foliar post-emergence visual weed control: monochoria; details: MOOVA, 7DAA
Protocol: as §1, with “Commercially available products were used to make all applications, consisting of FENCER® 250D and BENGALA® 250D (25 grams active ingredient per liter (g ai/L) penoxsulam in an oil dispersion formulation); GALLANT™ SUPER and VERDICT™ SUPER EC (108 g ai/L haloxyfop-R-methyl in an emulsifiable concentrate formulation); GULLIVER® (500 grams active ingredient per kilograms (g ai/kg) WP (wettable powder)) and NOMINEE® SL (100 g ai/L bispyribac-sodium wettable powder).” left out
Colby's equation was used to determine the herbicidal effects expected from the mixtures, as described above. The results were measured at the evaluation intervals provided in Tables 1-5 after the first application of the compositions. […]

In the case of `COc1cc(OC)nc(NC(=O)NS(=O)(=O)c2c(-c3nnn(C)n3)cnn2C)n1` [Azimsulfuron, 1-(4,6-dimethoxypyrimidin-2-yl)-3-[1-methyl-4-(2-methyl-2H-tetrazol-5-yl)pyrazol-5-ylsulfonyl]urea], the “Mean % weed control” value ([1]; 7DAA, 40 g ai/ha alone) is reported as 89.0%, the “Mean % weed control” value ([2]; 14DAA, 10 g ai/ha alone) is reported as 0.0% and the “Mean % weed control” value ([2]; 14DAA, 20 g ai/ha alone) is reported as 0.0%.
With `COC(=O)c1ccccc1CS(=O)(=O)NC(=O)Nc1nc(OC)cc(OC)n1` [Bensulfuron-Methyl, bensulfuron-methyl] the “% Visual Weed Control” value ([1]; 28DAA, 20 g ai/ha alone (Table 4)) was 0%, the “% Visual Weed Control” value ([1]; 28DAA, 40 g ai/ha alone (Table 4)) was 23% and the “% Visual Weed Control” value ([3]; 10 g ai/ha alone) was 90%. For the same molecule, the “% Visual Weed Control” value ([3]; 20 g ai/ha alone) was 92%.
For `COc1cc(OC)nc(Oc2cccc(Oc3nc(OC)cc(OC)n3)c2C(=O)O)n1` [Bispyribac-Sodium, bispyribac-sodium], the “Mean % weed control” value ([1]; 7DAA, 20 g ai/ha alone) was 53.3%, the “Mean % weed control” value ([1]; 7DAA, 40 g ai/ha alone) was 76.7% and the “Mean % weed control” value ([1]; 14DAA, 20 g ai/ha alone) was 35.0%. For the same molecule, the “Mean % weed control” value ([1]; 28DAA, 20 g ai/ha alone) was 20.0% and the “Mean % weed control” value ([1]; 28DAA, 40 g ai/ha alone) was 88.3%.
`COC(=O)C(C)Oc1ccc(Oc2ncc(C(F)(F)F)cc2Cl)cc1` [Haloxyfop-methyl (R), haloxyfop-R-methyl] was tested, and the “Mean % weed control” value ([4]; 7DAA, 8 g ai/ha alone) was 71.7%, the “Mean % weed control” value ([4]; 15DAA, 4 g ai/ha alone) was 35.0% and the “Mean % weed control” value ([5]; 7DAA, 8 g ai/ha alone) was 0.0%. The “Mean % weed control” value ([5]; 7DAA, 16 g ai/ha alone) was 0.0%, the “Mean % weed control” value ([5]; 15DAA, 8 g ai/ha alone) was 0.0% and the “Mean % weed control” value ([5]; 15DAA, 16 g ai/ha alone) was 11.3%. The “Mean % weed control” value ([6]; 7DAA, 8 g ai/ha alone) was 11.7%, the “Mean % weed control” value ([6]; 15DAA, 4 g ai/ha alone) was 0.0% and the “Mean % weed control” value ([6]; 15DAA, 16 g ai/ha alone) was 77.5%. The “Mean % weed control” value ([6]; 28DAA, 4 g ai/ha alone) was 0.0%, the “Mean % weed control” value ([7]; 4 g ai/ha alone) was 21.7% and the “Mean % weed control” value ([1]; 7DAA, 4 g ai/ha alone) was 0.0%. For the same molecule, the “Mean % weed control” value ([1]; 7DAA, 8 g ai/ha alone) was 0.0%, the “Mean % weed control” value ([1]; 7DAA, 27 g ai/ha alone) was 0.0% and the “Mean % weed control” value ([1]; 14DAA, 8 g ai/ha alone) was 0.0%. For the same molecule, the “Mean % weed control” value ([1]; 21DAA, 27 g ai/ha alone) was 0.0%, the “Mean % weed control” value ([1]; 28DAA, 4 g ai/ha alone) was 0.0% and the “% Visual Weed Control” value ([1]; 28DAA, 4 g ai/ha alone (Table 4)) was 0%. The “Mean % weed control” value ([1]; 28DAA, 8 g ai/ha alone) was 0.0% and 6.7%, the “% Visual Weed Control” value ([1]; 28DAA, 8 g ai/ha alone (Table 4)) was 0% and the “Mean % weed control” value ([1]; 28DAA, 13.5 g ai/ha alone) was 0.0%. The “Mean % weed control” value ([1]; 28DAA, 27 g ai/ha alone) was 0.0%, the “Mean % weed control” value ([8]; 16 g ai/ha alone) was 0.0% and the “Mean % weed control” value ([2]; 7DAA, 8 g ai/ha alone) was 0.0%. For the same molecule, the “Mean % weed control” value ([2]; 14DAA, 2 g ai/ha alone) was 0.0%, the “Mean % weed control” value ([2]; 14DAA, 4 g ai/ha alone) was 0.0% and the “Mean % weed control” value ([2]; 28DAA, 8 g ai/ha alone) was 0.0%. The “% Visual Weed Control” value ([3]; 2 g ai/ha alone) was 0%, the “% Visual Weed Control” value ([3]; 8 g ai/ha alone) was 0% and the “Mean % weed control” value ([3]; 16 g ai/ha alone) was 0.0%. The “Mean % weed control” value ([3]; 32 g ai/ha alone) was 0.0%.
For `COc1cnc(OC)n2nc(NS(=O)(=O)c3c(OCC(F)F)cccc3C(F)(F)F)nc12` [Penoxsulam], the “Mean % weed control” value ([4]; 7DAA, 8 g ai/ha alone) was 0.0%, the “Mean % weed control” value ([4]; 7DAA, 16 g ai/ha alone) was 0.0% and the “Mean % weed control” value ([4]; 15DAA, 8 g ai/ha alone) was 0.0%. For the same molecule, the “Mean % weed control” value ([4]; 15DAA, 16 g ai/ha alone) was 0.0%, the “Mean % weed control” value ([4]; 15DAA, 32 g ai/ha alone) was 0.0% and the “Mean % weed control” value ([5]; 7DAA, 8 g ai/ha alone) was 62.0%. For the same molecule, the “Mean % weed control” value ([5]; 7DAA, 32 g ai/ha alone) was 87.0%, the “Mean % weed control” value ([5]; 15DAA, 8 g ai/ha alone) was 85.0% and the “Mean % weed control” value ([6]; 7DAA, 32 g ai/ha alone) was 3.3%. For the same molecule, the “Mean % weed control” value ([6]; 15DAA, 8 g ai/ha alone) was 0.0%, the “Mean % weed control” value ([6]; 28DAA, 8 g ai/ha alone) was 0.0% and the “Mean % weed control” value ([6]; 28DAA, 16 g ai/ha alone) was 12.5%. For the same molecule, the “Mean % weed control” value ([7]; 8 g ai/ha alone) was 0.0%, the “Mean % weed control” value ([7]; 16 g ai/ha alone) was 0.0% and the “Mean % weed control” value ([7]; 32 g ai/ha alone) was 0.0%. The “Mean % weed control” value ([1]; 7DAA, 10 g ai/ha alone) was 63.3%, the “Mean % weed control” value ([1]; 7DAA, 15 g ai/ha alone) was 95.7% and the “Mean % weed control” value ([1]; 21DAA, 15 g ai/ha alone) was 93.3%. For the same molecule, the “Mean % weed control” value ([1]; 28DAA, 7.5 g ai/ha alone) was 53.3%, the “Mean % weed control” value ([1]; 28DAA, 10 g ai/ha alone) was 56.7% and the “Mean % weed control” value ([1]; 28DAA, 15 g ai/ha alone) was 91.7%. For the same molecule, the “Mean % weed control” value ([1]; 28DAA, 30 g ai/ha alone) was 98.3%, the “Mean % weed control” value ([8]; 5 g ai/ha alone) was 90.0% and the “Mean % weed control” value ([2]; 7DAA, 10 g ai/ha alone) was 0.0%. The “Mean % weed control” value ([2]; 7DAA, 20 g ai/ha alone) was 0.0%, the “Mean % weed control” value ([2]; 7DAA, 30 g ai/ha alone) was 0.0% and the “Mean % weed control” value ([2]; 14DAA, 10 g ai/ha alone) was 0.0%. For the same molecule, the “Mean % weed control” value ([2]; 14DAA, 20 g ai/ha alone) was 0.0%, the “Mean % weed control” value ([2]; 14DAA, 30 g ai/ha alone) was 0.0% and the “Mean % weed control” value ([2]; 28DAA, 30 g ai/ha alone) was 0.0%. The “Mean % weed control” value ([3]; 10 g ai/ha alone) was 93.3%.
